Reference: patent US9278527B2, “Ink jet recording ink, ink jet recording method, ink jet recording head, and ink jet recording apparatus” (CANON FINETECH INC., priority 2013, dated 2016)
Where two headings read alike, the source gives them in different places.

Tests used:
[1] = Hydrophilicity-hydrophobicity coefficient from water activity value of 20% aqueous solution (equation (A)); type: physicochemical
[2] = 20% aqueous solution, water activity by chilled mirror dew point method (AquaLab CX-3TE) at 25° C., equation (A)

| Compound | Hydrophilicity-hydrophobicity coefficient [1, 2] | Solubility (Solubility in water) [g/100 g H2O] | Hydrophilicity-hydrophobicity coefficient [1] |
| --- | --- | --- | --- |
| CC(O)C(O)CO (stereo not drawn) [1,2,3-Butanetriol] | 0.22 | > 20 | – |
| OCCC(O)CO (stereo not drawn) [1,2,4-Butanetriol] | 0.15 | > 20 | – |
| OCCCCC(O)CO (stereo not drawn) [1,2,6-Hexanetriol] | 0.28 | > 20 | – |
| CCC(O)CO (stereo not drawn) [1,2-Butanediol] | 0.90 | > 20 | – |
| CCCCC(O)CO (stereo not drawn) [1,2-Hexanediol] | 0.97 | > 20 | – |
| CCCC(O)CO (stereo not drawn) [1,2-Pentanediol] | 0.93 | > 20 | – |
| OCCCCCO [1,5-Pentanediol] | 0.41 | > 20 | – |
| OCCCCCCO [1,6-Hexanediol] | 0.76 | > 20 | – |
| OCCCCCCCO [1,7-Heptanediol] | 0.73 | > 20 | – |
| CC(O)CC(C)O (stereo not drawn) [2,4-Pentanediol] | 0.86 | > 20 | – |
| CC(C)(O)CCO [3-Methyl-1,3-butanediol] | 0.90 | > 20 | – |
| CC(CCO)CCO [3-Methyl-1,5-Pentanediol] | 0.54 | > 20 | – |
| O=C1NCCN1 [Ethylene urea] | 0.30 | > 20 | – |
| OCC(O)CO [Glycerin] | 0.11 | > 20 | – |
| OC[C@@H](O)[C@@H](O)[C@H](O)[C@@H](O)CO [Sorbitol] | 0.21 | > 20 | – |
| OCCOCCOCCO [Triethylene glycol] | 0.07 | > 20 | – |
| NC(N)=O [Urea] | 0.20 | > 20 | – |
| Bishydroxyethyl sulfone | – | – | 0.21 |
| Polyethylene glycol 200 | −0.09 | > 20 | – |
| Polyethylene glycol 600 | −0.43 | > 20 | – |
